For test [1], the system named is PSA, TMPRSS2 and FKBP5 expression. The experiment in a line: Inhibition of androgen-responsive gene expression (qPCR). In kind it is cell-based, human. The method, then: Cells were starved with phenol red-free and serum free-medium for at least 48 h and treated with the indicated drugs and/or androgens. RNA was extracted with a GenElute Mammalian Total RNA miniprep kit (Sigma-Aldrich). cDNA was synthesized from 1 μg RNA in a reverse transcription reaction using the iScript cDNA Synthesis Kit (Bio-Rad, Hercules, Calif.). Quantitative PCR (qPCR) analysis was conducted in triplicate with primers for PSA, TMPRSS2, FKBP5, and RPLPO described previously (Chang et al., Cell, 154:1074-1084 (2013), with an ABI 7500 Real-Time PCR machine (Applied Biosystems) using iTaq Fast SYBR Green Supermix with ROX (Bio-Rad) in 96-well plates at a final reaction volume of 20 μL. Accurate quantitation of each mRNA was achieved by normalizing the sample values to RPLPO and to vehicle-treated cells.

Another test has as its system LNCaP cells. The experiment in a line: Cell proliferation assay, DHT-stimulated growth. The conditions noted are these: DHT 0.5 nM, 2, 4 and 6 days. The test is classed as cell-based, human. The method, then: LNCaP cells (0.1 million/mL) were seeded in 96-well plates and cultured in phenol red free RPMI-1640 mediums plus 10% charcoal stripped FBS with androgens and/or drugs. Medium was changed every other day. After 2, 4 or 6 days, cells were collected and lysed after treatment. Growth was then determined based on DNA content as detected by Hoechst stain and a Wallac Victor2 1420 Multilabel counter (Perkin Elmer). Two-tailed student's t-test was used to determine significance.

The next test concerns VCaP xenografts. The experiment in a line: VCaP xenograft progression in orchiectomized mice with DHEA pellet. In kind it is in vivo. The conditions noted are these: 0.5 mmol/kg/d i.p.; compared to the Abi acetate group, P=0.011. On the procedure: Male NSG mice, 6 to 8 weeks of age were obtained from the Cleveland Clinic Biological Resources Unit facility. All mouse studies were conducted under a protocol approved by the Cleveland Clinic Institutional Animal Care and Use Committee. Sample size was determined based on our prior studies of steroidogenesis inhibition in xenograft models of CRPC. Chang et al., Proc Natl Acad Sci USA., 108:13728-13733 (2011). Criteria for progression were determined based on similar criteria that are utilized for clinical progression. Mice were surgically orchiectomized and implanted with a 5 mg 90-day sustained-release DHEA pellet (Innovative Research of America) to mimic CRPC in the context of human adrenal physiology. Two days later, 10^7 VCaP or C4-2 cells were injected subcutaneously with matrigel. Once tumors reached 300 mm^3 (length×width×height×0.52), mice were arbitrarily (but not strictly randomized) assigned to vehicle (n=9 or 10 mice for VCaP and C4-2 respectively), Abi acetate (n=10 mice for both cell lines), D4A (n=10 mice for both cell lines) or enzalutamide (n=11 for C4-2) treatment groups. […] Tumor volume was measured daily, and time to increase in tumor volume by 20% was determined. […] The significance of the difference between treatment groups was assessed by Kaplan-Meier survival analysis using a log-rank test in SigmaStat 3.5.

As for `C[C@]12CCC(=O)C=C1CC[C@@H]1[C@@H]2CC[C@]2(C)C(c3cccnc3)=CC[C@@H]12` [Compound D4A, 17-(3-Pyridyl)androsta-4,16-dien-3-one], the “suppression of PSA, TMPRSS2 and FKBP5 expression compared to Abi” value in test [1] (induced by DHT, DHEA and R1881, LNCAP, LAPC4 and C4-2 cell lines) was “clearly better suppresses”. In test [1] (mutant and wild-type AR (LNCaP and LAPC4)), the “inhibition of DHT-induced endogenous PSA expression” value was “equivalent to enzalutamide”. Besides, in the test on LNCaP cells, the “effect on DHT-stimulated cell growth” value was “more potent than Abi”. Moreover, the “time to tumor progression (>20% increase in tumor volume)” value in the test with VCaP xenografts was “significantly delayed”.
